Measurements as given in ChEMBL document CHEMBL4043230, “Synthesis and biological evaluation of peptide-derived TSLP inhibitors” (Bioorg Med Chem Lett, 2017).
Where a SMILES comes first, the peptide text is derived from it.

Columns and labels:
[1] = biological target: Thymic stromal lymphopoietin (Homo sapiens) (UniProt Q969D9); assay: Inhibition of human N-terminal flag-tagged TSLP/human C-terminal octa histidine-tagged TSLPR interaction at 0.3 mM after 16 hrs by ELISA based spectrophotometric analysis
Sequence of Thymic stromal lymphopoietin (Homo sapiens) (Q969D9 whole entry): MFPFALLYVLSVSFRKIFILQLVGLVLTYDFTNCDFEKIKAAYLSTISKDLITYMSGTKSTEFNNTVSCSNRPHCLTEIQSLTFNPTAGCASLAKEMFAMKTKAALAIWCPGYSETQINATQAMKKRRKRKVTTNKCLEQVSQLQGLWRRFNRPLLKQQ

[2] = biological target: Thymic stromal lymphopoietin (Homo sapiens) (UniProt Q969D9); assay: Inhibition of human N-terminal flag-tagged TSLP/human C-terminal octa histidine-tagged TSLPR interaction at 0.1 mM after 16 hrs by ELISA based spectrophotometric analysis
[3] = biological target: Thymic stromal lymphopoietin (Homo sapiens) (UniProt Q969D9); assay: Inhibition of human N-terminal flag-tagged TSLP/human C-terminal octa histidine-tagged TSLPR interaction at 1 mM after 16 hrs by ELISA based spectrophotometric analysis relative to control

CC(=O)N[C@@H](C)C(=O)N[C@@H](C)C(=O)N[C@@H](Cc1cnc[nH]1)C(=O)N[C@@H](Cc1ccc(O)cc1)C(=O)NCC(=O)N[C@@H](CC(C)C)C(=O)N[C@@H](CCC(=O)O)C(=O)O (Ac-AAHYGLE-OH)
inhibition [1]: 11% | inhibition [2]: 4% | inhibition [3]: 37%

CC(=O)N[C@@H](C)C(=O)N[C@@H](C)C(=O)N[C@@H](Cc1cnc[nH]1)C(=O)N[C@@H](Cc1ccc(O)cc1)C(=O)NCC(=O)N[C@@H](CC(C)C)C(=O)N[C@@H](CCC(=O)O)C(=O)N[C@@H](C)C(=O)O (Ac-AAHYGLEA-OH)
inhibition [1]: 4% | inhibition [2]: 2% | inhibition [3]: 26%

CC(=O)N[C@@H](C)C(=O)N[C@@H](CCCNC(=N)N)C(=O)N[C@@H](CCC(N)=O)C(=O)N[C@@H](CCCNC(=N)N)C(=O)N[C@@H](C)C(=O)N[C@@H](CO)C(=O)N[C@@H](C)C(=O)O (Ac-ARQRASA-OH)
inhibition [1]: 30% | inhibition [2]: 30% | inhibition [3]: 26%

CC(=O)N[C@@H](C)C(=O)N[C@@H](CCCNC(=N)N)C(=O)N[C@@H](CCC(N)=O)C(=O)N[C@@H](CCCNC(=N)N)C(=O)N[C@@H](C)C(=O)N[C@@H](CO)C(=O)N[C@@H](C)C(=O)N[C@@H](Cc1c[nH]c2ccccc12)C(=O)O (Ac-ARQRASAW-OH)
inhibition [1]: 56% | inhibition [2]: 50% | inhibition [3]: 65%

CC(=O)N[C@@H](CCCNC(=N)N)C(=O)N[C@@H](C)C(=O)N[C@@H](C)C(=O)N[C@@H](Cc1cnc[nH]1)C(=O)N[C@@H](Cc1ccc(O)cc1)C(=O)NCC(=O)N[C@@H](CC(C)C)C(=O)N[C@@H](CCC(=O)O)C(=O)O (Ac-RAAHYGLE-OH)
inhibition [1]: 15% | inhibition [2]: 5% | inhibition [3]: 52%

CC(=O)N[C@@H](CCCNC(=N)N)C(=O)N[C@@H](C)C(=O)N[C@@H](C)C(=O)N[C@@H](Cc1cnc[nH]1)C(=O)N[C@@H](Cc1ccc(O)cc1)C(=O)NCC(=O)N[C@@H](CC(C)C)C(=O)N[C@@H](CCC(=O)O)C(=O)N[C@@H](C)C(=O)O (Ac-RAAHYGLEA-OH)
inhibition [1]: 11% | inhibition [2]: 12% | inhibition [3]: 34%

CC(=O)N[C@@H](CCCNC(=N)N)C(=O)N[C@@H](CCC(N)=O)C(=O)N[C@@H](CCCNC(=N)N)C(=O)N[C@@H](C)C(=O)N[C@@H](CO)C(=O)N[C@@H](C)C(=O)O (Ac-RQRASA-OH)
inhibition [1]: 22% | inhibition [2]: 22% | inhibition [3]: 18%

CC(=O)N[C@@H](CCCNC(=N)N)C(=O)N[C@@H](CCC(N)=O)C(=O)N[C@@H](CCCNC(=N)N)C(=O)N[C@@H](C)C(=O)N[C@@H](CO)C(=O)N[C@@H](C)C(=O)N[C@@H](Cc1c[nH]c2ccccc12)C(=O)O (Ac-RQRASAW-OH)
inhibition [1]: 44% | inhibition [2]: 38% | inhibition [3]: 56%

CC(C)C[C@H](NC(=O)CNC(=O)[C@H](Cc1ccc(O)cc1)NC(=O)[C@H](Cc1cnc[nH]1)NC(=O)[C@H](C)NC(=O)[C@H](C)N)C(=O)N[C@@H](CCC(=O)O)C(=O)O (H-AAHYGLE-OH)
inhibition [1]: 3% | inhibition [2]: 2% | inhibition [3]: 16%

CC(C)C[C@H](NC(=O)CNC(=O)[C@H](Cc1ccc(O)cc1)NC(=O)[C@H](Cc1cnc[nH]1)NC(=O)[C@H](C)NC(=O)[C@H](C)N)C(=O)N[C@@H](CCC(=O)O)C(=O)N[C@@H](C)C(=O)O (H-AAHYGLEA-OH)
inhibition [1]: 23% | inhibition [2]: 5% | inhibition [3]: 59%

C[C@H](N)C(=O)N[C@@H](CCCNC(=N)N)C(=O)N[C@@H](CCC(N)=O)C(=O)N[C@@H](CCCNC(=N)N)C(=O)N[C@@H](C)C(=O)N[C@@H](CO)C(=O)N[C@@H](C)C(=O)O (H-ARQRASA-OH)
inhibition [1]: 32% | inhibition [2]: 30% | inhibition [3]: 30%

C[C@H](N)C(=O)N[C@@H](CCCNC(=N)N)C(=O)N[C@@H](CCC(N)=O)C(=O)N[C@@H](CCCNC(=N)N)C(=O)N[C@@H](C)C(=O)N[C@@H](CO)C(=O)N[C@@H](C)C(=O)N[C@@H](Cc1c[nH]c2ccccc12)C(=O)O (H-ARQRASAW-OH)
inhibition [1]: 49% | inhibition [2]: 42% | inhibition [3]: 60%

CC(C)C[C@H](NC(=O)CNC(=O)[C@H](Cc1ccc(O)cc1)NC(=O)[C@H](Cc1cnc[nH]1)NC(=O)[C@H](C)NC(=O)[C@H](C)NC(=O)[C@@H](N)CCCNC(=N)N)C(=O)N[C@@H](CCC(=O)O)C(=O)O (H-RAAHYGLE-OH)
inhibition [1]: 10% | inhibition [2]: 4% | inhibition [3]: 45%

CC(C)C[C@H](NC(=O)CNC(=O)[C@H](Cc1ccc(O)cc1)NC(=O)[C@H](Cc1cnc[nH]1)NC(=O)[C@H](C)NC(=O)[C@H](C)NC(=O)[C@@H](N)CCCNC(=N)N)C(=O)N[C@@H](CCC(=O)O)C(=O)N[C@@H](C)C(=O)O (H-RAAHYGLEA-OH)
inhibition [1]: 17% | inhibition [2]: 7% | inhibition [3]: 35%

C[C@H](NC(=O)[C@H](CO)NC(=O)[C@H](C)NC(=O)[C@H](CCCNC(=N)N)NC(=O)[C@H](CCC(N)=O)NC(=O)[C@@H](N)CCCNC(=N)N)C(=O)O (H-RQRASA-OH)
inhibition [1]: 15% | inhibition [2]: 19% | inhibition [3]: 18%

C[C@H](NC(=O)[C@H](CO)NC(=O)[C@H](C)NC(=O)[C@H](CCCNC(=N)N)NC(=O)[C@H](CCC(N)=O)NC(=O)[C@@H](N)CCCNC(=N)N)C(=O)N[C@@H](Cc1c[nH]c2ccccc12)C(=O)O (H-RQRASAW-OH)
inhibition [1]: 47% | inhibition [2]: 38% | inhibition [3]: 46%
